We go through 1 compound from patent US12257253B2, “Triamterene or nolatrexed for use in the treatment of phenylketonuria” (SOM INNOVATION BIOTECH, S.A., priority 2019, dated 2025).

pKd: −log10 of the molar value.

Broadly, the pKd is the negative decadic logarithm of the Kd, by convention in mol/L. A higher pKd goes with a small Kd.

Holding throughout (type): binding
The target in test [1] is T1, wild-type PAH (Homo sapiens (Human), UniProt P00439). Description: Thermal stability shift assay (DSF). To be noted: compound 30 μM (BH4 43 μM). The text has this:
(§1) 1. Thermal Stability Shift Assay
(§2) Thórólfsson et al. (Biochemistry, 2002, 41(24), 7573-7585) describe that the thermal denaturation of hPAH occurs in three stages: (i) unfolding of the four regulatory domains, which is responsible for the low-temperature calorimetric transition (ii) unfolding of two (out of the four) catalytic domains, which is responsible for the high-temperature transition; and (iii) irreversible protein denaturation. The most important domain for stabilization is the regulatory domain.
(§3) Thus, to test the compound effect on thermal stability of the target protein a thermal stability shift assay (also called differential scanning fluorimetry (DSF)) was performed [Niesen F. H. et al., Nat Protoc., 2007, 2(9), 2212-2221; Gersting S. W. et al., Human Molecular Genetics, 2010, 19(10), 2039-2049; and Gersting S. W. et al., J. Biol Chem. 2010, 285(40), 30686-30697]. DSF monitors thermal unfolding of proteins in the presence of a fluorescent dye (SYPRO Orange; λexc=465 nm, λem=610 nm) and was performed using a real-time PCR instrument (Applied BioSystems 7000HT Fast Real-Time PCR System). Compounds that increase the midpoints of thermal denaturation (Tm) are considered to bind and stabilize the protein.
(§4) In brief, purified wild-type or Arg261Gln (which is the most frequent mutation responsive to BH4) PAH proteins (diluted in 20 mM NaHEPES, pH 7.0 and 200 mM NaCl, 2 mM DTT to 2 mg/ml) were used at a final concentration of 0.2 mg/ml protein per sample. The compounds were tested at a final concentration of 30 μM. A no compound control (NCC) was used according to the compound solvent at a final concentration of 2% (H2O, DMSO, ethanol, methanol). As a positive control we used the natural cofactor 6R-L-erythro-5,6,7,8-tetrahydrobiopterin (BH4, CAS 69056-38-8) stabilized in 100 mM dithiothreitol (DTT), in a final concentration of 43 μM. To exclude unspecific effects of the compound to the dye, a no protein control (NPC) was added (buffer, compound, dye). The measurement was performed in duplicates and samples were denatured by scanning a temperature range of 20 to 75° C. at a scan rate of 0.5° C./min.
(§5) The data was normalized and the respective Tm values were calculated by bi-phasic equation to determine temperatures at which half denaturation occurred (Software GraphPadPrism). To identify compound specific effects on the thermal stability of the target protein, the reference Tm (NCC) was used to calculate the temperature shift between compound treated and not treated protein (Tm−TmNCC), from duplicates, to provide transition midpoints shifts (ΔTm1 and ΔTm2). Tm1 and Tm2 are the two different transition mid point of the unfolding process of the protein as the tetrameric protein PAH unfolds in two steps due to its domains. A shift in Tm1 of 2° C. reflects a relevant increase in thermal stability on the regulatory domain and, thus, is considered a positive result.

A further test addresses Arg261Gln (R261Q) PAH (Homo sapiens (Human), UniProt P00439, R261Q). Description: Thermal stability shift assay (DSF). To be noted: compound 30 μM (BH4 43 μM).
From the text: as §1, §2, §3, §4, §5

Test [2] concerns the target T1, wild-type PAH. Description: Isothermal titration calorimetry. As to conditions: ITC. The source says: 4. Isothermal Titration Calorimetry
Isothermal titration calorimetry (ITC) is a quantitative physical technique used to determine binding affinities of small molecules to proteins or other larger molecules [Freyer M. W. and Lewis E. A., Methods in Cell Biology, 2008, vol. 4, Chapter 4, pages 79-113]. The measurement detects changes of heat generated or absorbed when molecules interact, generate binding kinetics and thermodynamic profile of the molecular interaction. The following parameters are determined: KD (equilibrium dissociation constant), N (stoichiometry of the interaction (mol ligand/mol complex)), ΔH (enthalpy change), ΔG (Gibbs energy), T (temperature) and ΔS (entropy change).
ITC experiments were performed at 25° C. using a MicroCal PEAQ-ITC microcalorimeter (Malvern). PAH proteins were prepared in a HEPES buffer (HEPES 20 mM Hepes, 0.2M NaCl, 1 mM DTT, pH 7.0) containing 5% DMSO, in order to match the final DMSO concentration of the compounds dilutions. The protein concentration used (30 μM) was determined using ultraviolet (UV) absorbance at 280 nm. The compounds ([…]) were prepared using the exact same buffer. Twelve injections of 3 μL of compound/ligand were titrated into the sample cell (containing the protein) over 31 min with a stirring speed of 750 rpm. Data was baseline adjusted by subtracting the background obtained from equivalent injections of compound into the buffer solution. The titration curves were analyzed using MicroCal PEAQ-ITC analytics software (version 1.1.0.1262, Malvern Instruments Ltd.) using a model that assumes a set of identical binding sites where the total heat of the solution is calculated as:
[formula] where n is the number of binding sites, Mt is the total protein concentration in the cell, ΔH is the molar heat of ligand binding, Xt is the total concentration of ligand, and K the binding constant (K=1/KD). The heat released per injection (i), ΔQ(i), is calculated following the equation below, which compensates for the volume that is added in each injection (ΔVi). V0 is the initial volume in the cell.
The parameters, n, K, and ΔH are determined using non-linear square fitting using the Levenberg-Marquardt algorithm.
A general note: ITC needs no label: the signal is the heat of the interaction.

Where [3] appears, read: shift of transition midpoint 1 vs NCC.
Where [4] appears, read: shift of transition midpoint 2 vs NCC.

T1 sequence (P00439 whole entry): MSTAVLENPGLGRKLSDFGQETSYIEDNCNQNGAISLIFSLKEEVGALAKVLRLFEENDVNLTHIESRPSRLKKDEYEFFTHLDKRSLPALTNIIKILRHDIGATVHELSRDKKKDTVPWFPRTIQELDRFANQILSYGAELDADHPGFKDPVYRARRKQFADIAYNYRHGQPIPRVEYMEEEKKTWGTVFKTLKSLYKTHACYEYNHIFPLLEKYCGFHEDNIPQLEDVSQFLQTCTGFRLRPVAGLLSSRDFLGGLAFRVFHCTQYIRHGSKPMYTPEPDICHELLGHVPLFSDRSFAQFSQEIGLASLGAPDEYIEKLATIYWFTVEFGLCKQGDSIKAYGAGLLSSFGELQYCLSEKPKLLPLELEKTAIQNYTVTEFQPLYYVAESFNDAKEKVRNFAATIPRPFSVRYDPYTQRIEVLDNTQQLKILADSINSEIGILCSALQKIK
Arg261Gln (R261Q) PAH, sequence (P00439 whole entry R261Q): as the sequence (P00439 whole entry) above, with R261Q counted along it

For the compound `Nc1nc(N)c2nc(-c3ccccc3)c(N)nc2n1` [Triamterene, 2,4,7-triamino-6-phenylpteridine], at wild-type PAH [1] (setting [3]), the “ΔTm1 WT PAH” value is 0.33 °C. Further, the “ΔTm2 WT PAH” value on wild-type PAH [1] (setting [4]) stood at 3.23 °C. In addition, at Arg261Gln (R261Q) PAH (setting [3]), the “ΔTm1 R261Q PAH” value was determined as 2.21 °C. Moreover, the “ΔTm2 R261Q PAH” value on Arg261Gln (R261Q) PAH (setting [4]) amounted to 2.82 °C. On wild-type PAH [2] (25° C., WT PAH), the pKd was 5.52, the “N (stoichiometry)” value came to 0.726 ± 0.00 sites, the ΔG was -7.53 kcal/mol and the ΔH was -5.54 ± 0.17 kcal/mol. The “−TΔS” value at wild-type PAH [2] (25° C., WT PAH) was -1.99 kcal/mol. In addition, the “Kd (in words)” value on wild-type PAH [2] (recombinant PAH) is recorded as “low micromolar range”.
